Key:
[1] = target: GDP-bound HRAS wild-type protein (Homo sapiens, UniProt P01112); experiment: Binding to HRAS by surface plasmon resonance (SPR), Single Cycle Kinetics; settings: SPR, GDP-bound HRAS wild-type protein vs GDP-bound KRAS wild-type protein
[2] = target: GDP-bound NRAS wild-type protein (Homo sapiens, UniProt P01111); experiment: Binding to NRAS by surface plasmon resonance (SPR), Single Cycle Kinetics; settings: SPR, GDP-bound NRAS wild-type protein vs GDP-bound KRAS wild-type protein
Sequence of GDP-bound NRAS wild-type protein (P01111 whole entry): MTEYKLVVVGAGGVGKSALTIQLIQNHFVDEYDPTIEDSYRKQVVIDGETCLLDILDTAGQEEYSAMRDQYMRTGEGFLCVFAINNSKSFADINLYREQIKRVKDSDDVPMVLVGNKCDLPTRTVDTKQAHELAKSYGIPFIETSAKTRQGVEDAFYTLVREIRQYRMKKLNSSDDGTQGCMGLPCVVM

[3] = target: GDP-bound KRAS wild-type protein (Homo sapiens, UniProt P01116); experiment: Binding to KRAS by surface plasmon resonance (SPR), Single Cycle Kinetics; settings: SPR Single Cycle Kinetics, GDP-bound KRAS wild-type protein, 1:1 binding model; read-out: KRAS KD
Sequence of GDP-bound KRAS wild-type protein (P01116 whole entry): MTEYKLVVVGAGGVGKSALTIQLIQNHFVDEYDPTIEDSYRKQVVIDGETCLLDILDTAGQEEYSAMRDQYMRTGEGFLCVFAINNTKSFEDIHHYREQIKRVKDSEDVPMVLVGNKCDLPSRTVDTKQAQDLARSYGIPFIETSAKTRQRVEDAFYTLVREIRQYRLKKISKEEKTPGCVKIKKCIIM

Sequence of GDP-bound HRAS wild-type protein (P01112 whole entry): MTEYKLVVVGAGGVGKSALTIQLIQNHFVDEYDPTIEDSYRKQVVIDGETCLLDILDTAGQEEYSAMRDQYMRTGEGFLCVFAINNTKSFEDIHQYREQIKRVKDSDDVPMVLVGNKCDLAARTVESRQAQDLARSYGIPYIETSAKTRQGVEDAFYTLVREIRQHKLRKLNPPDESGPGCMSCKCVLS

SMILES | Kd [3] [nM] | HRAS/KRAS (ratio of KD value with respect to HRAS to KD value with respect to KRAS) [1] | NRAS/KRAS (ratio of KD value with respect to NRAS to KD value with respect to KRAS) [2]
CC[C@H](C)[C@@H]1NC(=O)[C@H](CC(C)C)N(C)C(=O)C[C@@H](C(=O)N2CCOCC2)N(C)C(=O)[C@H](C2CCCC2)N(C)C(=O)C2(CCC2)NC(=O)[C@@H]2CCCN2C(=O)[C@H](CCc2cc(F)c(C(F)(F)F)c(F)c2)NC(=O)CN(C)C(=O)[C@H](Cc2ccc(C(F)(F)F)cc2)N2CCCCC[C@@H](C2=O)N(C)C(=O)CN(C)C1=O [PP0497] | 0.85 | B (a compound having 3 or more and less than 10 is denoted as B) | B (a compound having 3 or more and less than 10 is denoted as B)
CC[C@H](C)[C@@H]1NC(=O)[C@H](CC(C)C)N(C)C(=O)C[C@@H](C(=O)N2CCOCC2)N(C)C(=O)[C@H](C2CCCC2)N(C)C(=O)C2(CCCCC2)NC(=O)[C@@H]2CCCN2C(=O)[C@H](CCc2cc(F)c(C(F)(F)F)c(F)c2)NC(=O)CN(C)C(=O)[C@H](Cc2ccc(C(F)(F)F)cc2)N2CCCCC[C@@H](C2=O)N(C)C(=O)CN(C)C1=O [PP0498] | 18 | B (a compound having 3 or more and less than 10 is denoted as B) | B (a compound having 3 or more and less than 10 is denoted as B)
CC[C@H](C)[C@@H]1NC(=O)[C@H](CC(C)C)N(C)C(=O)C[C@@H](C(=O)N2CCOCC2)N(C)C(=O)[C@H](C2CCCC2)N(C)C(=O)C2(CC(F)(F)C2)NC(=O)[C@@H]2CCCN2C(=O)[C@H](CCc2cc(F)c(C(F)(F)F)c(F)c2)NC(=O)CN(C)C(=O)[C@H](Cc2ccc(C(F)(F)F)cc2)N2CCCCC[C@@H](C2=O)N(C)C(=O)CN(C)C1=O [PP0499] | 1.1 | B (a compound having 3 or more and less than 10 is denoted as B) | B (a compound having 3 or more and less than 10 is denoted as B)
CC[C@H](C)[C@@H]1NC(=O)[C@H](CC(C)C)N(C)C(=O)C[C@@H](C(=O)N2CCOCC2)N(C)C(=O)[C@H](C2CCCC2)N(C)C(=O)C2(CCOCC2)NC(=O)[C@@H]2CCCN2C(=O)[C@H](CCc2cc(F)c(C(F)(F)F)c(F)c2)NC(=O)CN(C)C(=O)[C@H](Cc2ccc(C(F)(F)F)cc2)N2CCCCC[C@@H](C2=O)N(C)C(=O)CN(C)C1=O [PP0502] | 12 | B (a compound having 3 or more and less than 10 is denoted as B) | A (a compound having 10 or more and less than 20 is denoted as A)
CC[C@H](C)[C@@H]1NC(=O)[C@H](CC(C)C)N(C)C(=O)C[C@@H](C(=O)N2CCOCC2)N(C)C(=O)[C@H](C2CCCC2)N(C)C(=O)C(C)(C)NC(=O)[C@@H]2CCCN2C(=O)[C@H](CCc2cc(F)c(C(F)(F)F)c(F)c2)NC(=O)CN(C)C(=O)[C@H](Cc2ccc(C(F)(F)F)cc2)N2CCCCC[C@@H](C2=O)N(C)C(=O)CN(C)C1=O [PP0503] | 4.4 | B (a compound having 3 or more and less than 10 is denoted as B) | A (a compound having 10 or more and less than 20 is denoted as A)
CC[C@H](C)[C@@H]1NC(=O)[C@H](CC(C)C)N(C)C(=O)C[C@@H](C(=O)N2CCOCC2)N(C)C(=O)[C@H](C2CCCCC2)N(C)C(=O)C2(CCCC2)NC(=O)[C@@H]2CCCN2C(=O)[C@H](CCc2cc(F)c(C(F)(F)F)c(F)c2)NC(=O)CN(C)C(=O)[C@H](Cc2ccc(C(F)(F)F)cc2)N2CCCCC[C@@H](C2=O)N(C)C(=O)CN(C)C1=O [PP0505] | 10 | B (a compound having 3 or more and less than 10 is denoted as B) | B (a compound having 3 or more and less than 10 is denoted as B)
CC[C@H](C)[C@@H]1NC(=O)[C@H](CC(C)C)N(C)C(=O)C[C@@H](C(=O)N2CCOCC2)N(C)C(=O)[C@H](CC(F)(F)F)N(C)C(=O)C2(CCCC2)NC(=O)[C@@H]2CCCN2C(=O)[C@H](CCc2cc(F)c(C(F)(F)F)c(F)c2)NC(=O)CN(C)C(=O)[C@H](Cc2ccc(C(F)(F)F)cc2)N2CCCCC[C@@H](C2=O)N(C)C(=O)CN(C)C1=O [PP0506] | 25 | B (a compound having 3 or more and less than 10 is denoted as B) | B (a compound having 3 or more and less than 10 is denoted as B)
CC[C@H](C)[C@@H]1NC(=O)[C@H](CC(C)C)N(C)C(=O)C[C@@H](C(=O)N(C)C)N(C)C(=O)[C@H](C2CCCC2)N(C)C(=O)C2(CCCC2)NC(=O)[C@@H]2CCCN2C(=O)[C@H](CCc2cc(F)c(C(F)(F)F)c(F)c2)NC(=O)CN(C)C(=O)[C@H](Cc2ccc(C(F)(F)F)cc2)N2CCCCC[C@@H](C2=O)N(C)C(=O)CN(C)C1=O [PP0507] | 0.94 | B (a compound having 3 or more and less than 10 is denoted as B) | B (a compound having 3 or more and less than 10 is denoted as B)
CC[C@H](C)[C@@H]1NC(=O)[C@H](CC(C)C)N(C)C(=O)C[C@@H](C(=O)N2CCCC2)N(C)C(=O)[C@H](C2CCCC2)N(C)C(=O)C2(CCCC2)NC(=O)[C@@H]2CCCN2C(=O)[C@H](CCc2cc(F)c(C(F)(F)F)c(F)c2)NC(=O)CN(C)C(=O)[C@H](Cc2ccc(C(F)(F)F)cc2)N2CCCCC[C@@H](C2=O)N(C)C(=O)CN(C)C1=O [PP0509] | 2.4 | B (a compound having 3 or more and less than 10 is denoted as B) | B (a compound having 3 or more and less than 10 is denoted as B)
CC[C@H](C)[C@@H]1NC(=O)[C@H](CC(C)C)N(C)C(=O)C[C@@H](C(=O)N2CCCCC2)N(C)C(=O)[C@H](C2CCCC2)N(C)C(=O)C2(CCCC2)NC(=O)[C@@H]2CCCN2C(=O)[C@H](CCc2cc(F)c(C(F)(F)F)c(F)c2)NC(=O)CN(C)C(=O)[C@H](Cc2ccc(C(F)(F)F)cc2)N2CCCCC[C@@H](C2=O)N(C)C(=O)CN(C)C1=O [PP0510] | 12 | B (a compound having 3 or more and less than 10 is denoted as B) | B (a compound having 3 or more and less than 10 is denoted as B)

Further lines, with some results ahead:

Kd [3] [nM] | SMILES | HRAS/KRAS (ratio of KD value with respect to HRAS to KD value with respect to KRAS) [1] | NRAS/KRAS (ratio of KD value with respect to NRAS to KD value with respect to KRAS) [2]
0.37 | CC[C@H](C)[C@@H]1NC(=O)[C@H](CC(C)C)N(C)C(=O)C[C@@H](C(=O)N(C)C)N(C)C(=O)[C@H](C2CCCC2)N(C)C(=O)C2(CCC2)NC(=O)[C@@H]2CCCN2C(=O)[C@H](CCc2cc(F)c(C(F)(F)F)c(F)c2)NC(=O)CN(C)C(=O)[C@H](Cc2ccc(C(F)(F)F)cc2)N2CCCCC[C@@H](C2=O)N(C)C(=O)CN(C)C1=O [PP0512] | B (a compound having 3 or more and less than 10 is denoted as B) | B (a compound having 3 or more and less than 10 is denoted as B)
6.2 | CC[C@H](C)[C@@H]1NC(=O)[C@H](CC(C)C)N(CC)C(=O)C[C@@H](C(=O)N2CCOCC2)N(C)C(=O)[C@H](C2CCCC2)N(C)C(=O)C2(CCCC2)NC(=O)[C@@H]2CCCN2C(=O)[C@H](CCc2cc(F)c(C(F)(F)F)c(F)c2)NC(=O)CN(C)C(=O)[C@H](Cc2ccc(C(F)(F)F)cc2)N2CCCCC[C@@H](C2=O)N(C)C(=O)CN(C)C1=O [PP0513] | B (a compound having 3 or more and less than 10 is denoted as B) | B (a compound having 3 or more and less than 10 is denoted as B)
11 | CC[C@H](C)[C@@H]1NC(=O)[C@H](CC(C)C)N(C)C(=O)C[C@@H](C(=O)N(C)C)N(C)C(=O)[C@H](C2CCCC2)N(C)C(=O)C2(CCCC2)NC(=O)[C@@H]2CCCN2C(=O)[C@H](CCc2cc(F)c(C(F)(F)F)c(F)c2)NC(=O)CN(C)C(=O)[C@H](Cc2ccc(C(F)(F)F)cc2)N2CCCCC[C@@H](C2=O)N(C)C(=O)CN(CC)C1=O [PP0514] | B (a compound having 3 or more and less than 10 is denoted as B) | B (a compound having 3 or more and less than 10 is denoted as B)
29 | CC[C@H](C)[C@@H]1NC(=O)[C@H](CC(C)C)N(C)C(=O)C[C@@H](C(=O)N2CCOCC2)N(C)C(=O)[C@H](C2CCCC2)N(C)C(=O)C2(CCCC2)NC(=O)[C@H](C)N(CC)C(=O)[C@H](CCc2cc(F)c(C(F)(F)F)c(F)c2)NC(=O)CN(C)C(=O)[C@H](Cc2ccc(C(F)(F)F)cc2)N2CCCCC[C@@H](C2=O)N(C)C(=O)CN(C)C1=O [PP0515] | B (a compound having 3 or more and less than 10 is denoted as B) | B (a compound having 3 or more and less than 10 is denoted as B)
10 | CC[C@H](C)[C@@H]1NC(=O)[C@H](CC(C)C)NC(=O)C[C@@H](C(=O)N2CCOCC2)N(C)C(=O)[C@H](C2CCCC2)N(C)C(=O)C2(CCCC2)NC(=O)[C@@H]2CCCN2C(=O)[C@H](CCc2cc(F)c(C(F)(F)F)c(F)c2)NC(=O)CN(C)C(=O)[C@H](Cc2ccc(C(F)(F)F)cc2)N2CCCCC[C@@H](C2=O)N(C)C(=O)CN(C)C1=O [PP0516] | B (a compound having 3 or more and less than 10 is denoted as B) | B (a compound having 3 or more and less than 10 is denoted as B)

Source: patent publication US20240158446A1, “CYCLIC COMPOUND HAVING SELECTIVE INHIBITORY ACTION ON KRAS OVER HRAS AND NRAS” (CHUGAI SEIYAKU KABUSHIKI KAISHA, priority 2021, published 2024)
